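How tested: cells in 96-well plates exposed to compound for 48 hours at five concentrations. At the TGI there is no net growth.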
These compounds were tested on HOP-62 NSCLC (assay: NCI-60 cell line screen, 48 h).

Compared with `CC(C)CCC[C@@H](C)C1CCC2[C@@H]3CC=C4C[C@@H](C(=O)NCCN(C)C)CC[C@]4(C)C3CC[C@@]21C` (stereo partly drawn), `O=[N+]([O-])c1cccc(C2=NOC(C3CCCCC3)C2)c1` (stereo not drawn) is higher in TGI: 61.2 µM for the first, over 100 µM for the second.

Compared with `CN(C(=O)c1ccc([N+](=O)[O-])cc1)c1ccccc1`, `O=C(CN(c1ccccc1)c1ccccc1)N1c2ccccc2C2C=CC=CC21` (stereo not drawn) is lower in TGI: over 100 µM for the first, 41.5 µM for the second.

`Cc1ccc(C)c(N2C/C(=N\NC(=O)CC#N)C(c3nc4ccccc4s3)C(=O)C2=O)c1` (stereo not drawn) and `O=C1Sc2ccccc2C(=O)N2CSCC12` (stereo not drawn) cannot be ordered by TGI: over 100 µM for the first, over 100 µM for the second.

For `CCOCN1COCN(C)C1=O`, the TGI was over 100 µM.

These compounds were tested on DMS 273 small cell lung (assay: NCI-60 cell line screen, 48 h).

`CC(C)CCC[C@@H](C)C1CCC2[C@@H]3CC=C4C[C@@H](C(=O)NCCN(C)C)CC[C@]4(C)C3CC[C@@]21C` (stereo partly drawn) and `O=[N+]([O-])c1cccc(C2=NOC(C3CCCCC3)C2)c1` (stereo not drawn) cannot be ordered by TGI: over 100 µM for the first, over 100 µM for the second.

`CN(C(=O)c1ccc([N+](=O)[O-])cc1)c1ccccc1` and `O=C(CN(c1ccccc1)c1ccccc1)N1c2ccccc2C2C=CC=CC21` (stereo not drawn) cannot be ordered by TGI: over 100 µM for the first, over 60.3 µM for the second.

`Cc1ccc(C)c(N2C/C(=N\NC(=O)CC#N)C(c3nc4ccccc4s3)C(=O)C2=O)c1` (stereo not drawn) and `O=C1Sc2ccccc2C(=O)N2CSCC12` (stereo not drawn) cannot be ordered by TGI: over 100 µM for the first, over 100 µM for the second.

With `CCOCN1COCN(C)C1=O` the TGI was over 100 µM.

Each compound was assayed on EKVX NSCLC (assay: NCI-60 cell line screen, 48 h).

`CC(C)CCC[C@@H](C)C1CCC2[C@@H]3CC=C4C[C@@H](C(=O)NCCN(C)C)CC[C@]4(C)C3CC[C@@]21C` (stereo partly drawn) and `Cc1ccc(C)c(N2C/C(=N\NC(=O)CC#N)C(c3nc4ccccc4s3)C(=O)C2=O)c1` (stereo not drawn) cannot be ordered by TGI: over 100 µM for the first, over 100 µM for the second.

`CN(C(=O)c1ccc([N+](=O)[O-])cc1)c1ccccc1` and `O=C(CN(c1ccccc1)c1ccccc1)N1c2ccccc2C2C=CC=CC21` (stereo not drawn) cannot be ordered by TGI: over 100 µM for the first, over 59.4 µM for the second.

`CCOCN1COCN(C)C1=O` and `O=C1Sc2ccccc2C(=O)N2CSCC12` (stereo not drawn) cannot be ordered by TGI: over 100 µM for the first, over 100 µM for the second.

What follows are compounds tested on HOP-92 NSCLC (assay: NCI-60 cell line screen, 48 h).

Going from `CC(C)CCC[C@@H](C)C1CCC2[C@@H]3CC=C4C[C@@H](C(=O)NCCN(C)C)CC[C@]4(C)C3CC[C@@]21C` (stereo partly drawn) to `O=[N+]([O-])c1cccc(C2=NOC(C3CCCCC3)C2)c1` (stereo not drawn), the TGI rises from 61.4 µM to over 100 µM.

`CN(C(=O)c1ccc([N+](=O)[O-])cc1)c1ccccc1` and `Cc1ccc(C)c(N2C/C(=N\NC(=O)CC#N)C(c3nc4ccccc4s3)C(=O)C2=O)c1` (stereo not drawn) cannot be ordered by TGI: over 100 µM for the first, over 100 µM for the second.

`CCOCN1COCN(C)C1=O` and `O=C1Sc2ccccc2C(=O)N2CSCC12` (stereo not drawn) cannot be ordered by TGI: over 100 µM for the first, over 100 µM for the second.

The compounds below were run on HL-60(TB) leukemia (assay: NCI-60 cell line screen, 48 h).

`CC(C)CCC[C@@H](C)C1CCC2[C@@H]3CC=C4C[C@@H](C(=O)NCCN(C)C)CC[C@]4(C)C3CC[C@@]21C` (stereo partly drawn) and `O=[N+]([O-])c1cccc(C2=NOC(C3CCCCC3)C2)c1` (stereo not drawn) cannot be ordered by TGI: over 100 µM for the first, over 100 µM for the second.

`Cc1ccc(C)c(N2C/C(=N\NC(=O)CC#N)C(c3nc4ccccc4s3)C(=O)C2=O)c1` (stereo not drawn) and `O=C1Sc2ccccc2C(=O)N2CSCC12` (stereo not drawn) cannot be ordered by TGI: over 100 µM for the first, over 100 µM for the second.

Work on `O=C(CN(c1ccccc1)c1ccccc1)N1c2ccccc2C2C=CC=CC21` (stereo not drawn) yielded a TGI of 25.7 µM.

The compounds below were run on OVCAR-8 ovarian (assay: NCI-60 cell line screen, 48 h).

`CC(C)CCC[C@@H](C)C1CCC2[C@@H]3CC=C4C[C@@H](C(=O)NCCN(C)C)CC[C@]4(C)C3CC[C@@]21C` (stereo partly drawn) and `O=[N+]([O-])c1cccc(C2=NOC(C3CCCCC3)C2)c1` (stereo not drawn) cannot be ordered by TGI: over 100 µM for the first, over 100 µM for the second.

Going from `CN(C(=O)c1ccc([N+](=O)[O-])cc1)c1ccccc1` to `O=C(CN(c1ccccc1)c1ccccc1)N1c2ccccc2C2C=CC=CC21` (stereo not drawn), the TGI falls from over 100 µM to 53.5 µM.

`Cc1ccc(C)c(N2C/C(=N\NC(=O)CC#N)C(c3nc4ccccc4s3)C(=O)C2=O)c1` (stereo not drawn) and `O=C1Sc2ccccc2C(=O)N2CSCC12` (stereo not drawn) cannot be ordered by TGI: over 100 µM for the first, over 100 µM for the second.

`CCOCN1COCN(C)C1=O` gave a TGI of over 100 µM.

Each compound was assayed on IGROV1 ovarian (assay: NCI-60 cell line screen, 48 h).

`CC(C)CCC[C@@H](C)C1CCC2[C@@H]3CC=C4C[C@@H](C(=O)NCCN(C)C)CC[C@]4(C)C3CC[C@@]21C` (stereo partly drawn) and `O=[N+]([O-])c1cccc(C2=NOC(C3CCCCC3)C2)c1` (stereo not drawn) cannot be ordered by TGI: over 100 µM for the first, over 100 µM for the second.

Compared with `CN(C(=O)c1ccc([N+](=O)[O-])cc1)c1ccccc1`, `O=C(CN(c1ccccc1)c1ccccc1)N1c2ccccc2C2C=CC=CC21` (stereo not drawn) is lower in TGI: over 100 µM for the first, 47.3 µM for the second.

`Cc1ccc(C)c(N2C/C(=N\NC(=O)CC#N)C(c3nc4ccccc4s3)C(=O)C2=O)c1` (stereo not drawn) and `O=C1Sc2ccccc2C(=O)N2CSCC12` (stereo not drawn) cannot be ordered by TGI: over 100 µM for the first, over 100 µM for the second.

`CCOCN1COCN(C)C1=O` gave a TGI of over 100 µM.

The compounds below were run on UACC-62 melanoma (assay: NCI-60 cell line screen, 48 h).

`CC(C)CCC[C@@H](C)C1CCC2[C@@H]3CC=C4C[C@@H](C(=O)NCCN(C)C)CC[C@]4(C)C3CC[C@@]21C` (stereo partly drawn) and `O=[N+]([O-])c1cccc(C2=NOC(C3CCCCC3)C2)c1` (stereo not drawn) cannot be ordered by TGI: over 100 µM for the first, over 100 µM for the second.

`CN(C(=O)c1ccc([N+](=O)[O-])cc1)c1ccccc1` and `O=C(CN(c1ccccc1)c1ccccc1)N1c2ccccc2C2C=CC=CC21` (stereo not drawn) cannot be ordered by TGI: over 10 µM for the first, 50.6 µM for the second.

`Cc1ccc(C)c(N2C/C(=N\NC(=O)CC#N)C(c3nc4ccccc4s3)C(=O)C2=O)c1` (stereo not drawn) and `O=C1Sc2ccccc2C(=O)N2CSCC12` (stereo not drawn) cannot be ordered by TGI: over 100 µM for the first, over 100 µM for the second.

`CCOCN1COCN(C)C1=O` showed a TGI of over 100 µM.

The compounds below were run on UO-31 renal (assay: NCI-60 cell line screen, 48 h).

First: CC(C)CCC[C@@H](C)C1CCC2[C@@H]3CC=C4C[C@@H](C(=O)NCCN(C)C)CC[C@]4(C)C3CC[C@@]21C (stereo partly drawn)
Second: O=[N+]([O-])c1cccc(C2=NOC(C3CCCCC3)C2)c1 (stereo not drawn)
The TGI of the first is lower: 55.1 µM for the first, over 100 µM for the second.

`CN(C(=O)c1ccc([N+](=O)[O-])cc1)c1ccccc1` and `O=C(CN(c1ccccc1)c1ccccc1)N1c2ccccc2C2C=CC=CC21` (stereo not drawn) cannot be ordered by TGI: over 100 µM for the first, over 49.9 µM for the second.

`Cc1ccc(C)c(N2C/C(=N\NC(=O)CC#N)C(c3nc4ccccc4s3)C(=O)C2=O)c1` (stereo not drawn) and `O=C1Sc2ccccc2C(=O)N2CSCC12` (stereo not drawn) cannot be ordered by TGI: over 100 µM for the first, over 100 µM for the second.

Compound `CCOCN1COCN(C)C1=O` has a TGI of over 100 µM.

Each compound was assayed on OVCAR-5 ovarian (assay: NCI-60 cell line screen, 48 h).

`CC(C)CCC[C@@H](C)C1CCC2[C@@H]3CC=C4C[C@@H](C(=O)NCCN(C)C)CC[C@]4(C)C3CC[C@@]21C` (stereo partly drawn) and `O=[N+]([O-])c1cccc(C2=NOC(C3CCCCC3)C2)c1` (stereo not drawn) cannot be ordered by TGI: over 100 µM for the first, over 100 µM for the second.

`CN(C(=O)c1ccc([N+](=O)[O-])cc1)c1ccccc1` and `O=C(CN(c1ccccc1)c1ccccc1)N1c2ccccc2C2C=CC=CC21` (stereo not drawn) cannot be ordered by TGI: over 100 µM for the first, over 57.8 µM for the second.

Work on `CCOCN1COCN(C)C1=O` yielded a TGI of over 100 µM.

What follows are compounds tested on M14 melanoma (assay: NCI-60 cell line screen, 48 h).

First: CC(C)CCC[C@@H](C)C1CCC2[C@@H]3CC=C4C[C@@H](C(=O)NCCN(C)C)CC[C@]4(C)C3CC[C@@]21C (stereo partly drawn)
Second: O=[N+]([O-])c1cccc(C2=NOC(C3CCCCC3)C2)c1 (stereo not drawn)
The TGI of the first is lower: 32.6 µM for the first, over 100 µM for the second.

`CN(C(=O)c1ccc([N+](=O)[O-])cc1)c1ccccc1` and `O=C(CN(c1ccccc1)c1ccccc1)N1c2ccccc2C2C=CC=CC21` (stereo not drawn) cannot be ordered by TGI: over 100 µM for the first, over 57.3 µM for the second.

`Cc1ccc(C)c(N2C/C(=N\NC(=O)CC#N)C(c3nc4ccccc4s3)C(=O)C2=O)c1` (stereo not drawn) and `O=C1Sc2ccccc2C(=O)N2CSCC12` (stereo not drawn) cannot be ordered by TGI: over 100 µM for the first, over 100 µM for the second.

Work on `CCOCN1COCN(C)C1=O` yielded a TGI of over 100 µM.

The compounds below were run on U251 CNS (assay: NCI-60 cell line screen, 48 h).

Compared with `CC(C)CCC[C@@H](C)C1CCC2[C@@H]3CC=C4C[C@@H](C(=O)NCCN(C)C)CC[C@]4(C)C3CC[C@@]21C` (stereo partly drawn), `O=[N+]([O-])c1cccc(C2=NOC(C3CCCCC3)C2)c1` (stereo not drawn) is higher in TGI: 77.4 µM for the first, over 100 µM for the second.

`CN(C(=O)c1ccc([N+](=O)[O-])cc1)c1ccccc1` and `O=C(CN(c1ccccc1)c1ccccc1)N1c2ccccc2C2C=CC=CC21` (stereo not drawn) cannot be ordered by TGI: over 100 µM for the first, over 56.5 µM for the second.

`Cc1ccc(C)c(N2C/C(=N\NC(=O)CC#N)C(c3nc4ccccc4s3)C(=O)C2=O)c1` (stereo not drawn) and `O=C1Sc2ccccc2C(=O)N2CSCC12` (stereo not drawn) cannot be ordered by TGI: over 100 µM for the first, over 100 µM for the second.

With `CCOCN1COCN(C)C1=O` the TGI was over 100 µM.

These compounds were tested on HCT-15 colon (assay: NCI-60 cell line screen, 48 h).

First: CC(C)CCC[C@@H](C)C1CCC2[C@@H]3CC=C4C[C@@H](C(=O)NCCN(C)C)CC[C@]4(C)C3CC[C@@]21C (stereo partly drawn)
Second: O=[N+]([O-])c1cccc(C2=NOC(C3CCCCC3)C2)c1 (stereo not drawn)
The TGI of the first is lower: 53.7 µM for the first, over 100 µM for the second.

Going from `CN(C(=O)c1ccc([N+](=O)[O-])cc1)c1ccccc1` to `O=C(CN(c1ccccc1)c1ccccc1)N1c2ccccc2C2C=CC=CC21` (stereo not drawn), the TGI falls from over 100 µM to 32.1 µM.

`Cc1ccc(C)c(N2C/C(=N\NC(=O)CC#N)C(c3nc4ccccc4s3)C(=O)C2=O)c1` (stereo not drawn) and `CCOCN1COCN(C)C1=O` cannot be ordered by TGI: over 100 µM for the first, over 100 µM for the second.

The compounds below were run on SK-MEL-28 melanoma (assay: NCI-60 cell line screen, 48 h).

`CC(C)CCC[C@@H](C)C1CCC2[C@@H]3CC=C4C[C@@H](C(=O)NCCN(C)C)CC[C@]4(C)C3CC[C@@]21C` (stereo partly drawn) and `O=[N+]([O-])c1cccc(C2=NOC(C3CCCCC3)C2)c1` (stereo not drawn) cannot be ordered by TGI: over 100 µM for the first, over 100 µM for the second.

`CN(C(=O)c1ccc([N+](=O)[O-])cc1)c1ccccc1` and `O=C(CN(c1ccccc1)c1ccccc1)N1c2ccccc2C2C=CC=CC21` (stereo not drawn) cannot be ordered by TGI: over 100 µM for the first, over 56 µM for the second.

`Cc1ccc(C)c(N2C/C(=N\NC(=O)CC#N)C(c3nc4ccccc4s3)C(=O)C2=O)c1` (stereo not drawn) and `O=C1Sc2ccccc2C(=O)N2CSCC12` (stereo not drawn) cannot be ordered by TGI: over 100 µM for the first, over 100 µM for the second.

Compound `CCOCN1COCN(C)C1=O` has a TGI of over 100 µM.

What follows are compounds tested on SNB-78 CNS (assay: NCI-60 cell line screen, 48 h).

`CC(C)CCC[C@@H](C)C1CCC2[C@@H]3CC=C4C[C@@H](C(=O)NCCN(C)C)CC[C@]4(C)C3CC[C@@]21C` (stereo partly drawn) and `CN(C(=O)c1ccc([N+](=O)[O-])cc1)c1ccccc1` cannot be ordered by TGI: over 100 µM for the first, over 100 µM for the second.
